Results taken from ChEMBL document CHEMBL5505964, “HDAC/NAMPT dual inhibitors overcome initial drug-resistance in p53-null leukemia cells” (Eur J Med Chem, 2024).
pIC50: −log10 of the molar value.

Experiments:
[1] = target: Histone deacetylase 5 (Homo sapiens, UniProt Q9UQL6); test: Inhibition of C-terminal His-tagged human HDAC5 catalytic domain (656 to 1122 residues) expressed in baculovirus-infected Sf9 cells using Boc-Lys-(trifluoroacetyl)-AMC as substrate preincubated with enzyme for 1 hr followed by substrate addition and measured after 2 hrs by fluorescence analysis
[2] = Plasma clearance in CD-1 male mouse at 5 mg/kg, iv measured for 24 hrs by LC-MS/MS analysis; type: ADME, organism-based; settings: CD-1, mouse
[3] = target: T1, Protein deacetylase HDAC6 (Homo sapiens, UniProt Q9UBN7); test: Inhibition of N-terminal GST-tagged human full length recombinant HDAC6 (1 to 1215 residues) expressed in baculovirus-infected Sf9 cells using Boc-Lys-(acetyl)-AMC as substrate preincubated with enzyme for 1 hr followed by substrate addition and measured after 2 hrs by fluorescence analysis
T1 sequence (Q9UBN7 whole entry): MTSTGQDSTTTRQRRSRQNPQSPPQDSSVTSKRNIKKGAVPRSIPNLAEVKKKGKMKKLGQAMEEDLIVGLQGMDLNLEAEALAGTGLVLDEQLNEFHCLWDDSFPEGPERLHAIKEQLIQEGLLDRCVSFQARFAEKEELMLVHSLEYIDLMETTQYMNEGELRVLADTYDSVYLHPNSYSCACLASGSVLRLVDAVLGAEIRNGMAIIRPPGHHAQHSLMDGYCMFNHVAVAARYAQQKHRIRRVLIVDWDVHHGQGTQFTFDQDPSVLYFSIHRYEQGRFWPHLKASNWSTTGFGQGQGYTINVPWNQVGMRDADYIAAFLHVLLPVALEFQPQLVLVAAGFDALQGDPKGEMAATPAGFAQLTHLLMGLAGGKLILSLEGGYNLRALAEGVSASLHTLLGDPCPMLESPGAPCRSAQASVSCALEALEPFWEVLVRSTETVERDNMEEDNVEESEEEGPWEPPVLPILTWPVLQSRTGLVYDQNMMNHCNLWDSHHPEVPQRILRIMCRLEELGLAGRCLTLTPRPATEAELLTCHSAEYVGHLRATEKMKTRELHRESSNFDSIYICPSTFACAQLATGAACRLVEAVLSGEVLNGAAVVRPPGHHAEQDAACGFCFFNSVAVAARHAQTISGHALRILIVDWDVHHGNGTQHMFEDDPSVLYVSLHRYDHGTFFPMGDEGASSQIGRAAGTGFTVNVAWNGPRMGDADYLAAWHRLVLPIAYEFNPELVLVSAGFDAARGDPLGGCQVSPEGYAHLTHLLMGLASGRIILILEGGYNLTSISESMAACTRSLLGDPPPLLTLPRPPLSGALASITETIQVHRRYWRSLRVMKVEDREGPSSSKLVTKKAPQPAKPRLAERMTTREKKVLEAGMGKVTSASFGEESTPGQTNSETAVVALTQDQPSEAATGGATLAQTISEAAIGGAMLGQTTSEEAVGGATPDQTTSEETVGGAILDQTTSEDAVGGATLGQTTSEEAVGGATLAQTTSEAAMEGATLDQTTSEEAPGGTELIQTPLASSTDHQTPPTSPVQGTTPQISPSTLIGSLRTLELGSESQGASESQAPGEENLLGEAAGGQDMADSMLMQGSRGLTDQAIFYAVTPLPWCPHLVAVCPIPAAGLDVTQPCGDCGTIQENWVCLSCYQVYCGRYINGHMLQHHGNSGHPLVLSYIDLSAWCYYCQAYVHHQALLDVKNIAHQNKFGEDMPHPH

[4] = target: T2, Histone deacetylase 11 (Homo sapiens, UniProt Q96DB2); test: Inhibition of full length human recombinant HDAC11 (1 to 347 residues) expressed in baculovirus-infected Sf9 cells using Boc-Lys-(trifluoroacetyl)-AMC as substrate preincubated with enzyme for 1 hr followed by substrate addition and measured after 2 hrs by fluorescence analysis
T2 sequence (Q96DB2 whole entry): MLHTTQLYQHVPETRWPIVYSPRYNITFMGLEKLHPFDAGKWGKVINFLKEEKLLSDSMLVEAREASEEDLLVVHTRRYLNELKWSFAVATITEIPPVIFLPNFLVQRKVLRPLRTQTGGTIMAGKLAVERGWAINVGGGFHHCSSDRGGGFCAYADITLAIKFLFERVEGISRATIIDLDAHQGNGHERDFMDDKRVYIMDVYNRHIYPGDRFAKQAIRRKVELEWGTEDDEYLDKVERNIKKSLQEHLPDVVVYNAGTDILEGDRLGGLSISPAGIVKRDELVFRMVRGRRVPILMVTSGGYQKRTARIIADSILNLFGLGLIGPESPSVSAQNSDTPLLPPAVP

[5] = AUC (0 to infinity) in CD-1 male mouse at 5 mg/kg, iv by LC-MS/MS analysis; type: ADME, organism-based; settings: CD-1, mouse, in vivo
[6] = target: Histone deacetylase 3/Nuclear receptor corepressor 2 (HDAC3/NCoR2) (Homo sapiens, UniProt O15379); test: Inhibition of C-terminal His-tagged human HDAC3 (1 to 428 residues)/N-terminal GST tagged human NCOR2 (395 to 489 residues) expressed in baculovirus-infected Sf9 cells using Boc-Lys-(acetyl)-AMC as substrate preincubated with enzyme for 1 hr followed by substrate addition and measured after 2 hrs by fluorescence analysis
[7] = Cmax in CD-1 male mouse at 5 mg/kg, iv measured for 24 hrs by LC-MS/MS analysis; type: ADME, organism-based; settings: CD-1, mouse, in vivo
[8] = Half life in CD-1 male mouse at 5 mg/kg, iv measured for 24 hrs by LC-MS/MS analysis; type: ADME, organism-based; settings: CD-1, mouse, in vivo
[9] = target: Nicotinamide phosphoribosyltransferase (Homo sapiens, UniProt P43490); test: Inhibition of N-terminal GST-tagged human recombinant NAMPT (2 to 491 residues) expressed in Escherichia coli expression system incubated for 30 mins by fluorescence based analysis
Nicotinamide phosphoribosyltransferase, sequence (P43490 whole entry, the tested form may be a part): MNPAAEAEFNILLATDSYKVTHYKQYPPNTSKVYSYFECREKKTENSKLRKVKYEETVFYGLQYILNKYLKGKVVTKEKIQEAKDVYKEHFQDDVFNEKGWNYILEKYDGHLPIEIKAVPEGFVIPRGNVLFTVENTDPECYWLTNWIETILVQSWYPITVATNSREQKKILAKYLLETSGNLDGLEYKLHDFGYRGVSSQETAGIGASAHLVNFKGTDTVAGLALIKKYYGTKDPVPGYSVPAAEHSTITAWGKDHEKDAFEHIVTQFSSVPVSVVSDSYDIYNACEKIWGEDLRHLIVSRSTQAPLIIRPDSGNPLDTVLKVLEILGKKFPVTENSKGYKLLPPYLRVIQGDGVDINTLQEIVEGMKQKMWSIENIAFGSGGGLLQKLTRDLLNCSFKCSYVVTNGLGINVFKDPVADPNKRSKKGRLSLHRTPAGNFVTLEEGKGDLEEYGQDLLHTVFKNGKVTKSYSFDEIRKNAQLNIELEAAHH

Histone deacetylase 5, sequence (Q9UQL6 whole entry, the tested form may be a part): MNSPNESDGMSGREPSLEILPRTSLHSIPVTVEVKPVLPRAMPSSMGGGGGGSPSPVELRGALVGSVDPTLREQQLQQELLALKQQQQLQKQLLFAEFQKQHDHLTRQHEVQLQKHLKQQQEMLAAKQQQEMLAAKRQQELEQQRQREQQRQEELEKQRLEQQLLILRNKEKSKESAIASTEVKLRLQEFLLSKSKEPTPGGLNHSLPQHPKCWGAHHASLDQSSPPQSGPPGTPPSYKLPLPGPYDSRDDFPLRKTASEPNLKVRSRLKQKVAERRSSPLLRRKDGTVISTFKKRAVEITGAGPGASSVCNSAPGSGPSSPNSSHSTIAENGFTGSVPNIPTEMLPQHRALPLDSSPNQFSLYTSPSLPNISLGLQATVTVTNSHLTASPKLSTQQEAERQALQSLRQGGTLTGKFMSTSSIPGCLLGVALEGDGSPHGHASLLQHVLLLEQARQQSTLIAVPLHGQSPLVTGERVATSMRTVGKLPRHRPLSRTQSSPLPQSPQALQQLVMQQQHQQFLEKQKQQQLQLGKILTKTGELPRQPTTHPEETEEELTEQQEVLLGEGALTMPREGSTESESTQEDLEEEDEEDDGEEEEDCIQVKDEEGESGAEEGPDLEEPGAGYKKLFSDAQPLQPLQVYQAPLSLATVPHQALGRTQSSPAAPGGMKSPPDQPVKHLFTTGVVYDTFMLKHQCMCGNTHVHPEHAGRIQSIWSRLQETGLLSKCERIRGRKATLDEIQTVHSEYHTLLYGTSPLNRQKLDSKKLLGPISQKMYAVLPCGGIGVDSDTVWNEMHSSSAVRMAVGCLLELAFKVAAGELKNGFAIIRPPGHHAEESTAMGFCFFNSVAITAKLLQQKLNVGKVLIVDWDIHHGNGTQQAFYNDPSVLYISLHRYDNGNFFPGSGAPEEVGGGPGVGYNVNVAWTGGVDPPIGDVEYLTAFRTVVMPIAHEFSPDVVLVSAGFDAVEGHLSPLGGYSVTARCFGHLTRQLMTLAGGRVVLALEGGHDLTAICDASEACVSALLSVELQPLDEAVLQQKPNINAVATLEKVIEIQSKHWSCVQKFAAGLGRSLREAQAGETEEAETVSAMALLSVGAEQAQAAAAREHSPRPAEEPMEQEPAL
Histone deacetylase 3/Nuclear receptor corepressor 2 (HDAC3/NCoR2), sequence (O15379 whole entry, the tested form may be a part): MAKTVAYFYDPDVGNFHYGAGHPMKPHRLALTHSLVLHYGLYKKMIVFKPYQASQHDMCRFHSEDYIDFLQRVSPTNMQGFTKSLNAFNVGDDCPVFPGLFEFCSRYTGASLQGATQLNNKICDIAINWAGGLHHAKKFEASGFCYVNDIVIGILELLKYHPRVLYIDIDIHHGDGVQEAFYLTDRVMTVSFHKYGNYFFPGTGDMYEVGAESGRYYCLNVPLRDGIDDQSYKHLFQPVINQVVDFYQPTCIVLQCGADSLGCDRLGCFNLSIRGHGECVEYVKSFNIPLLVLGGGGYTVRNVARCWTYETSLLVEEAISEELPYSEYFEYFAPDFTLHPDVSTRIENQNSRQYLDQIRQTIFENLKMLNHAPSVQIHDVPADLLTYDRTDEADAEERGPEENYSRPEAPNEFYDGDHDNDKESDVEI
Histone deacetylase 3/Nuclear receptor corepressor 2 (HDAC3/NCoR2), sequence (Q9Y618 whole entry, further chain, the tested form may be a part): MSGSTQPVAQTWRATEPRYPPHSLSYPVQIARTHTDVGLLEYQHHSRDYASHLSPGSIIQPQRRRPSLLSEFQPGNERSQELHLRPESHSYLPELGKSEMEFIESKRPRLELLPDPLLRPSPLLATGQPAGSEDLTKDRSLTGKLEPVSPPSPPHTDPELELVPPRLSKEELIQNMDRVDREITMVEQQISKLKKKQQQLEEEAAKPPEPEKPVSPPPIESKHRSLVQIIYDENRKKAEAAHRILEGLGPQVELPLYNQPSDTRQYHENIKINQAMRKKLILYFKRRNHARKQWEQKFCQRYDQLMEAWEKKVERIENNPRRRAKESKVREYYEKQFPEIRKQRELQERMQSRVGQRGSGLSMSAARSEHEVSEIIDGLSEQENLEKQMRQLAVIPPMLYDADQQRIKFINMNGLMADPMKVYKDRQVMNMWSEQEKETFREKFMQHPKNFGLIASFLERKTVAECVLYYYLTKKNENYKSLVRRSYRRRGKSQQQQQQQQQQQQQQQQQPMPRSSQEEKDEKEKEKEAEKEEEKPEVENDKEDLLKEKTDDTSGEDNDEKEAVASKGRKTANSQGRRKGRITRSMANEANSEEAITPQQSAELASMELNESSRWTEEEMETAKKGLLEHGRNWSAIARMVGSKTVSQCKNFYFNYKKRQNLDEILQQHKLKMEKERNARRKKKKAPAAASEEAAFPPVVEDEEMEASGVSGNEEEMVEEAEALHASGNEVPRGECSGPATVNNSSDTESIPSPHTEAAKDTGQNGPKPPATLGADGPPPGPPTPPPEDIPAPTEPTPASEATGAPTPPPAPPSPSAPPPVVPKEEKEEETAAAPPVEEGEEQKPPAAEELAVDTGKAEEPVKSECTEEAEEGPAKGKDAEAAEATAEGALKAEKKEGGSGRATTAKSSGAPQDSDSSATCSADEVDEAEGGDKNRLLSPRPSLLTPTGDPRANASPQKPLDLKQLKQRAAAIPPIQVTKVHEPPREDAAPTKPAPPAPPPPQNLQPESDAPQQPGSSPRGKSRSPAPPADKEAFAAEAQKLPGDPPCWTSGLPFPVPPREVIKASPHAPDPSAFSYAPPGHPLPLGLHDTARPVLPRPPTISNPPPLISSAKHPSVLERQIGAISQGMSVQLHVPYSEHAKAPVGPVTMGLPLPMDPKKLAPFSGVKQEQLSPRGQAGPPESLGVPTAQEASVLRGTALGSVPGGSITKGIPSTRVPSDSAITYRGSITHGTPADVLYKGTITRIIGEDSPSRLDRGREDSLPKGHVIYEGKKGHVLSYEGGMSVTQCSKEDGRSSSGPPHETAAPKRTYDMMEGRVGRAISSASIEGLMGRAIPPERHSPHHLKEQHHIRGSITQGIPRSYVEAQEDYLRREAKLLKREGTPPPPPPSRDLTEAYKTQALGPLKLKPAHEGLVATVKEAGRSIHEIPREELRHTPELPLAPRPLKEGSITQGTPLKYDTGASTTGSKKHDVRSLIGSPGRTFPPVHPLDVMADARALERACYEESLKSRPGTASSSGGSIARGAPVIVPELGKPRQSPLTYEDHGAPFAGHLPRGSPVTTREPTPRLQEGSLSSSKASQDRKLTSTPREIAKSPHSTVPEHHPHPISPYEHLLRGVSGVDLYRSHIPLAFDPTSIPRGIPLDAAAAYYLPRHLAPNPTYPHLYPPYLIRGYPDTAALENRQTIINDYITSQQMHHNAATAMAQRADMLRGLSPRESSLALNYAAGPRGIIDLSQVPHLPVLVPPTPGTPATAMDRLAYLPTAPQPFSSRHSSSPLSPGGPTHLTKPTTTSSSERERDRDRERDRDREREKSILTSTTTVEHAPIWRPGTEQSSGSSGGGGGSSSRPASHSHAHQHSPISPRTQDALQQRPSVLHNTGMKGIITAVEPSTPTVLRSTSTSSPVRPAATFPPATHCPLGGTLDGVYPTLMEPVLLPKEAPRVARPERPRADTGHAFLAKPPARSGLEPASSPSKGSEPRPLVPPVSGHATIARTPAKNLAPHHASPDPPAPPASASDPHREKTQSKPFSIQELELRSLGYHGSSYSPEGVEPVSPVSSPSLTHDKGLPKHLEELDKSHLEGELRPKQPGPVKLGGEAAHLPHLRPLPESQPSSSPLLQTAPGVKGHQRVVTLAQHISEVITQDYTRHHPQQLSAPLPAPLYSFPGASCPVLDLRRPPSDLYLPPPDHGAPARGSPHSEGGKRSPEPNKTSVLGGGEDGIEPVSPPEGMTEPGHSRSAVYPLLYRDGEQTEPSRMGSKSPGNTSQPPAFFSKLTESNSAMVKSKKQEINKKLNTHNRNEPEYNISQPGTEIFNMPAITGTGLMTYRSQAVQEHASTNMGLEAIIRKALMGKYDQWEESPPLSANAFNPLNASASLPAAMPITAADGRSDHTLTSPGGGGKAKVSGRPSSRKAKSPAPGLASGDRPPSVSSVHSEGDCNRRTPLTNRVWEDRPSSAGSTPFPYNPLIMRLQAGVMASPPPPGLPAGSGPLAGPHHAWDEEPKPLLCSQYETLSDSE

For `CCCNNC(=O)c1ccc(CNC(=O)c2cc3cnccc3[nH]2)cc1`, the pIC50 [1] was < 5.00, the clearance [2] was 25.1 mL/min/kg and the pIC50 [3] was < 5.00. The pIC50 [4] was < 5.00, the AUC(0-inf) [5] was 3360 ng·h/mL and the pIC50 [6] was 9.14. The Cmax [7] was 11700 ng/mL and the half-life [8] was 9.19 h.

For `CCCNNC(=O)c1ccc(CNC(=O)/C=C/c2cccnc2)cc1`, the pIC50 [9] was 5.78, the pIC50 [1] was < 5.00 and the pIC50 [3] was < 5.00. The pIC50 [4] was < 5.00.
